Key:
[1] = tested on: Plasmodium falciparum; experiment: Antimalarial activity after 72 hrs against chloroquine-sensitive Plasmodium falciparum D6 infected in erythrocytes by LDH assay; format: functional, organism-based; settings: D6, 72 h
[2] = tested on: SW-620; experiment: Growth inhibition of human SW620 cells after 48 hrs by sulforhodamine B assay; format: functional; settings: SW-620, 48 h
[3] = tested on: SN12C; experiment: Growth inhibition of human SN12C cells after 48 hrs by sulforhodamine B assay; format: functional
[4] = tested on: SK-OV-3; experiment: Growth inhibition of human SKOV3 cells after 48 hrs by sulforhodamine B assay; format: functional; settings: SK-OV-3, 48 h
[5] = tested on: DU-145; experiment: Growth inhibition of human DU145 cells after 48 hrs by sulforhodamine B assay; format: functional; settings: DU-145, 48 h
[6] = tested on: HT-29; experiment: Growth inhibition of human HT-29 cells after 48 hrs by sulforhodamine B assay; format: functional; settings: HT-29, 48 h
[7] = Growth inhibition of human […] cells after 48 hrs by sulforhodamine B assay; format: functional
[8] = tested on: ACHN; experiment: Growth inhibition of human ACHN cells after 48 hrs by sulforhodamine B assay; format: functional
[9] = tested on: SR; experiment: Growth inhibition of human SR cells after 48 hrs by sulforhodamine B assay; format: functional
[10] = tested on: NCI-H460; experiment: Growth inhibition of human NCI-H460 cells after 48 hrs by sulforhodamine B assay; format: functional; settings: NCI-H460, 48 h
[11] = tested on: NCI-H23; experiment: Growth inhibition of human NCI-H23 cells after 48 hrs by sulforhodamine B assay; format: functional; settings: NCI-H23, 48 h
[12] = tested on: Malme-3M; experiment: Growth inhibition of human MALME-3M cells after 48 hrs by sulforhodamine B assay; format: functional
[13] = tested on: HCT-116; experiment: Growth inhibition of human HCT116 cells after 48 hrs by sulforhodamine B assay; format: functional; settings: HCT-116, 48 h
[14] = Selectivity index, ratio of TC50 for african green monkey (Cercopithecus aethiops) Vero cells to IC50 for chloroquine-resistant Plasmodium falciparum W2; format: toxicity, cell-based
[15] = tested on: MCF7; experiment: Growth inhibition of human MCF7 cells after 48 hrs by sulforhodamine B assay; format: functional; settings: MCF7, 48 h
[16] = tested on: Plasmodium falciparum; experiment: Antimalarial activity after 72 hrs against chloroquine-resistant Plasmodium falciparum W2 infected erythrocytes by LDH assay; format: functional, organism-based; settings: W2, 72 h
[17] = tested on: HL-60; experiment: Growth inhibition of human HL-60(TB) cells after 48 hrs by sulforhodamine B assay; format: functional; settings: HL-60, 48 h
[18] = tested on: NCI-H322M; experiment: Growth inhibition of human NCI-H322M cells after 48 hrs by sulforhodamine B assay; format: functional
[19] = tested on: CAKI-1; experiment: Growth inhibition of human Caki1 cells after 48 hrs by sulforhodamine B assay; format: functional; settings: CAKI-1, 48 h
[20] = tested on: HCT-15; experiment: Growth inhibition of human HCT15 cells after 48 hrs by sulforhodamine B assay; format: functional; settings: HCT-15, 48 h
[21] = tested on: PC-3; experiment: Growth inhibition of human PC3 cells after 48 hrs by sulforhodamine B assay; format: functional; settings: PC-3, 48 h
[22] = tested on: SF-295; experiment: Growth inhibition of human SF295 cells after 48 hrs by sulforhodamine B assay; format: functional; settings: SF-295, 48 h
[23] = tested on: OVCAR-4; experiment: Growth inhibition of human OVCAR4 cells after 48 hrs by sulforhodamine B assay; format: functional; settings: OVCAR-4, 48 h
[24] = tested on: LOX IMVI; experiment: Growth inhibition of human LOXIMVI cells after 48 hrs by sulforhodamine B assay; format: functional
[25] = tested on: M14; experiment: Growth inhibition of human M14 cells after 48 hrs by sulforhodamine B assay; format: functional; settings: M14, 48 h
[26] = tested on: OVCAR-5; experiment: Growth inhibition of human OVCAR5 cells after 48 hrs by sulforhodamine B assay; format: functional; settings: OVCAR-5, 48 h
[27] = Selectivity index, ratio of TC50 for african green monkey (Cercopithecus aethiops) Vero cells to IC50 for chloroquine-sensitive Plasmodium falciparum D6; format: toxicity, cell-based
[28] = tested on: UACC-257; experiment: Growth inhibition of human UACC257 cells after 48 hrs by sulforhodamine B assay; format: functional; settings: UACC-257, 48 h
[29] = tested on: NCI-H522; experiment: Growth inhibition of human NCI-H522 cells after 48 hrs by sulforhodamine B assay; format: functional; settings: NCI-H522, 48 h
[30] = tested on: TK-10; experiment: Growth inhibition of human TK10 cells after 48 hrs by sulforhodamine B assay; format: functional; settings: TK-10, 48 h
[31] = tested on: A549; experiment: Growth inhibition of human A549 cells after 48 hrs by sulforhodamine B assay; format: functional; settings: A549, 48 h
[32] = tested on: MDA-MB-435; experiment: Growth inhibition of human MDA-MB-435 cells after 48 hrs by sulforhodamine B assay; format: functional; settings: MDA-MB-435, 48 h
[33] = tested on: UO-31; experiment: Growth inhibition of human UO31 cells after 48 hrs by sulforhodamine B assay; format: functional; settings: UO-31, 48 h
[34] = tested on: COLO 205; experiment: Growth inhibition of human COLO205 cells after 48 hrs by sulforhodamine B assay; format: functional; settings: COLO 205, 48 h
[35] = tested on: RXF 393; experiment: Growth inhibition of human RXF393 cells after 48 hrs by sulforhodamine B assay; format: functional; settings: RXF 393, 48 h
[36] = tested on: K562; experiment: Growth inhibition of human K562 cells after 48 hrs by sulforhodamine B assay; format: functional; settings: K562, 48 h
[37] = tested on: HCC 2998; experiment: Growth inhibition of human HCC2998 cells after 48 hrs by sulforhodamine B assay; format: functional; settings: HCC 2998, 48 h
[38] = tested on: NCI-H226; experiment: Growth inhibition of human NCI-H226 cells after 48 hrs by sulforhodamine B assay; format: functional; settings: NCI-H226, 48 h
[39] = Cytotoxicity against african green monkey Vero cells after 48 hrs by neutral red assay; format: cell-based; settings: chlorocebus sabaeus, read-out: TC50
[40] = tested on: MDA-MB-231; experiment: Growth inhibition of human MDA-MB-231 cells after 48 hrs by sulforhodamine B assay; format: functional; settings: MDA-MB-231, 48 h
[41] = Growth inhibition of human Hs 578T cells after 48 hrs by sulforhodamine B assay; format: functional
[42] = tested on: 786-0; experiment: Growth inhibition of human 786-0 cells after 48 hrs by sulforhodamine B assay; format: functional; settings: 786-0, 48 h
[43] = tested on: SK-MEL-5; experiment: Growth inhibition of human SK-MEL-5 cells after 48 hrs by sulforhodamine B assay; format: functional; settings: SK-MEL-5, 48 h
[44] = tested on: SK-MEL-28; experiment: Growth inhibition of human SK-MEL-28 cells after 48 hrs by sulforhodamine B assay; format: functional; settings: SK-MEL-28, 48 h
[45] = tested on: KM12; experiment: Growth inhibition of human KM12 cells after 48 hrs by sulforhodamine B assay; format: functional; settings: KM12, 48 h
[46] = tested on: CCRF-CEM; experiment: Growth inhibition of human CCRF-CEM cells after 48 hrs by sulforhodamine B assay; format: functional
[47] = tested on: SK-MEL-2; experiment: Growth inhibition of human SK-MEL-2 cells after 48 hrs by sulforhodamine B assay; format: functional; settings: SK-MEL-2, 48 h
[48] = tested on: HOP-62; experiment: Growth inhibition of human HOP62 cells after 48 hrs by sulforhodamine B assay; format: functional; settings: HOP-62, 48 h
[49] = tested on: T47D; experiment: Growth inhibition of human T47D cells after 48 hrs by sulforhodamine B assay; format: functional
[50] = tested on: NCI/ADR-RES; experiment: Growth inhibition of human NCI/ADR-RES cells after 48 hrs by sulforhodamine B assay; format: functional

## C[C@H]1[C@@H](O[C@H]2CC[C@H](O[C@H]3O[C@@H]4O[C@@]5(C)CC[C@H]6[C@H](C)CC[C@@H]([C@H]3C)[C@@]46OO5)CC2)O[C@@H]2O[C@@]3(C)CC[C@H]4[C@H](C)CC[C@@H]1[C@@]24OO3
[1]
  IC50: 5.4 µM
[2]
  GI50: 0.024 µM
[3]
  GI50: 0.097 µM
[4]
  GI50: 0.166 µM
[5]
  GI50: 0.34 µM
[6]
  GI50: 0.011 µM
[7]
  GI50: < 0.01 µM
[8]
  GI50: 0.042 µM
[9]
  GI50: 0.306 µM
[10]
  GI50: 0.028 µM
[11]
  GI50: 0.043 µM
[12]
  GI50: 0.071 µM
[13]
  GI50: < 0.01 µM
[14]
  selectivity ratio: > 553
[15]
  GI50: 0.042 µM
[16]
  IC50: 13.3 µM
[17]
  GI50: 0.032 µM
[18]
  GI50: 0.672 µM
[19]
  GI50: 0.326 µM
[20]
  GI50: < 0.01 µM
[21]
  GI50: < 0.01 µM
[22]
  GI50: 0.061 µM
[23]
  GI50: 0.053 µM
[24]
  GI50: 0.013 µM
[25]
  GI50: 0.061 µM
[26]
  GI50: 0.042 µM
[27]
  selectivity ratio: 1360
[28]
  GI50: 0.074 µM
[29]
  GI50: 0.036 µM
[30]
  GI50: 0.119 µM
[31]
  GI50: 0.0188 µM
[32]
  GI50: 0.07 µM
[33]
  GI50: 0.123 µM
[34]
  GI50: < 0.01 µM
[35]
  GI50: 0.294 µM
[36]
  GI50: 0.041 µM
[37]
  GI50: 0.018 µM
[38]
  GI50: 0.025 µM
[39]
  CC50 at 48 h: > 7340 µM
[40]
  GI50: 0.52 µM
[41]
  GI50: 0.063 µM
[42]
  GI50: 0.027 µM
[43]
  GI50: 0.049 µM
[44]
  GI50: 98.8 µM
[45]
  GI50: 0.011 µM
[46]
  GI50: < 0.01 µM
[47]
  GI50: 0.296 µM
[48]
  GI50: 0.065 µM
[49]
  GI50: < 0.01 µM
[50]
  GI50: 0.13 µM

From ChEMBL document CHEMBL1140860, “Synthesis and evaluation of dihydroartemisinin and dihydroartemisitene acetal dimers showing anticancer and antiprotozoal activity” (Bioorg Med Chem, 2009)
